Data as given in patent US11696914B1 (priority 2019, dated 2023).
Where “and” joins values, the source holds several entries; their conditions need not be identical. Identical values can stand only once. Like-named read-outs stand apart in the source and are kept apart here.

Key:
[1] = human, microsomes, 1 h, pH 7.4
Human cytomegalovirus = assay: microbe, parasite or virus in culture; format: cell-based; conditions: Human betaherpesvirus 5
[2] = system: Venezuelian equine encephalitis virus; assay: microbe, parasite or virus in culture; format: cell-based; conditions: Venezuelan equine encephalitis virus, Vero 76
Dengue Virus 2 = assay: microbe, parasite or virus in culture; format: cell-based; conditions: Vero 76
Vero = conditions: African green monkey
[3] = male, Hartley, guinea pig, in vivo
Ebola virus = assay: microbe, parasite or virus in culture; format: cell-based; conditions: Zaire ebolavirus, Vero 76
[4] = mouse, microsomes; cited from earlier work
in vitro [5] = conditions: dog
in vitro [6] = conditions: mouse
Zika virus [7] = assay: microbe, parasite or virus in culture; format: cell-based; conditions: Vero 76
Influenza A virus H1N1 = assay: microbe, parasite or virus in culture; format: cell-based; conditions: H1N1, MDCK
Zika virus [8] = assay: microbe, parasite or virus in culture; format: cell-based; conditions: Huh-7
Rift Valley fever virus = assay: microbe, parasite or virus in culture; format: cell-based; conditions: Vero 76
Hartley guinea pigs = conditions: both, guinea pig, in vivo
Yellow Fever virus = assay: microbe, parasite or virus in culture; format: cell-based; conditions: Vero 76
[9] = system: Vesicular Stomatitis Virus (VSV) pseudotyped with EBOV glycoprotein; assay: microbe, parasite or virus in culture; format: cell-based, Ebola virus; conditions: HeLa, read-out: IC50, inhibition of EBOV-VSV pseudovirus entry
[10] = system: Respiratory synactial virus; assay: organism not typed; format: cell-based; conditions: MA104
[11] = system: Marburg virus (MARV), Musoke strain; assay: organism not typed; format: cell-based; conditions: HeLa; n=6; read-out: IC50 ± SEM versus MARV Musoke strain
Norovirus = assay: microbe, parasite or virus in culture; format: cell-based; conditions: HG23
Herpes Simplex Virus 1 = assay: microbe, parasite or virus in culture; format: cell-based; conditions: Human alphaherpesvirus 1
SARS-CoV-2 = assay: microbe, parasite or virus in culture; format: cell-based
West Nile virus = assay: microbe, parasite or virus in culture; format: cell-based; conditions: Vero 76
in vitro [12] = conditions: African green monkey
[13] = human, microsomes
Hepatitis C virus = assay: microbe, parasite or virus in culture; format: cell-based; conditions: Huh-7
Nipah virus = assay: microbe, parasite or virus in culture; format: cell-based; conditions: Henipavirus nipahense, read-out: IC50 against Nipah virus
Murine norovirus = assay: microbe, parasite or virus in culture; format: cell-based; conditions: Norwalk virus, RAW267.4
[14] = microsomes
[15] = guinea pig, pH 7.4
[16] = guinea pig, microsomes
[17] = mouse, microsomes
Tacaribe virus = assay: microbe, parasite or virus in culture; format: cell-based; conditions: Mammarenavirus tacaribeense, Vero
HepG2 2.2.15 = conditions: human
in vitro [18] = conditions: human
[19] = system: Ebola virus/H.sapiens-tc/COD/1976/Yambuku-Mayinga (EBOV/May); assay: microbe, parasite or virus in culture; format: cell-based; conditions: Zaire ebolavirus, HeLa
[20] = system: Marburg virus/H.sapiens-tc/AGO/2005/Ang-1379v (MARV/Ang); assay: organism not typed; format: cell-based; conditions: HeLa
MERS coronavirus = assay: microbe, parasite or virus in culture; format: cell-based; conditions: Middle East respiratory syndrome-related coronavirus, Vero 76
Hepatitis B virus = assay: microbe, parasite or virus in culture; format: cell-based; conditions: HepG2 2.2.15
Poliovirus 3 = assay: microbe, parasite or virus in culture; format: cell-based; conditions: Enterovirus C, Vero 76
Chikungunya virus = assay: microbe, parasite or virus in culture; format: cell-based; conditions: Vero 76

In the case of COc1ccc2nc3cc(Cl)ccc3c(Nc3cc(CN4CCCC4)c(O)c(CN4CCCC4)c3)c2n1 [Pyronaridine, 4-[(7-Chloro-2-methoxybenzo[b][1,5]naph-thyridin-10-yl)amino]-2,6-bis(1-pyrrolidinylmethyl)phenol phosphate (1:4)], the “Relative Peak Area/Abundance HLM” value [1] is reported as 85.9%, the EC50 (Human cytomegalovirus) is reported as greater than 1.2 µM and the EC90 (Human cytomegalovirus) is reported as greater than 1.2 µM. It also gave an EC50 [2] of 1.8 µM, an EC50 (Dengue Virus 2) of 3.2 µM and a CC50 (Vero) of 3.2 µM. For the same compound, the “guinea pigs found dead on days 14 and 17 post dose” value ([3]; ip) was 2 of 3, the “measurable plasma levels through” value ([3]; ip) was 168 h and the “AUCinf Mean” value ([3]; ip, 125 mg/kg) was 17,430 hr * ng/ml. The “AUClast Mean” value ([3]; ip, 125 mg/kg) was 16,565 hr * ng/ml, the “Cmax Mean” value ([3]; ip, 125 mg/kg) was 523 ng/mL and the T1/2 ([3]; ip, 125 mg/kg) was 72.7 h. The “measurable plasma levels through” value ([3]; po) was 336 h, the “AUCinf Mean” value ([3]; po, 600 mg/kg) was 58,783 hr * ng/ml and the “AUClast Mean” value ([3]; po, 600 mg/kg) was 50,964 hr * ng/ml. For the same compound, the “Cmax Mean” value ([3]; po, 600 mg/kg) was 1800 ng/mL, the T1/2 ([3]; po, 600 mg/kg) was 90.5 h and the EC50 (Ebola virus) was greater than 1.3 µM. The “Relative Peak Area/Abundance MLM” value [4] was 100%, the CC50 (in vitro [5]) was 3.2 µM and the CC50 (in vitro [6]) was greater than 40 µM. It also gave an EC50 (Zika virus [7]) of 3.2 µM, an EC50 (Influenza A virus H1N1) of 3.2 µM and an EC50 (Zika virus [8]) of 3.2 µM. For the same compound, the EC50 (Rift Valley fever virus) was 3.2 µM, the “guinea pigs found dead on days 5 and 6” value (Hartley guinea pigs) was 2 of 6 and the “guinea pigs found dead within 30 mins post injection” value (Hartley guinea pigs) was 4 of 6. The “guinea pigs having any abnormal clinical observations” value (Hartley guinea pigs) was 1 of 6, the “maximum tolerated dose (MTD), single dose” value (Hartley guinea pigs; ip) was 125 mg/kg and the “maximum tolerated dose (MTD), single dose” value (Hartley guinea pigs; po) was greater than 600 mg/kg. For the same compound, the EC50 (Yellow Fever virus) was 3.2 µM, the IC50 [9] was 2.07 µM and the EC50 [10] was greater than 7.5 µM. It also gave an IC50 [11] of 1.08 ± 0.197 µM, an EC50 (Norovirus) of 3.5 µM and an EC90 (Norovirus) of 9.7 µM. The EC50 (Herpes Simplex Virus 1) was greater than 6 µM, the EC90 (Herpes Simplex Virus 1) was greater than 6 µM and the IC50 (SARS-CoV-2; Severe acute respiratory syndrome coronavirus 2, A549-ACE2, read-out: IC50 against SARS-CoV-2) was less than 0.2 µM. The IC50 (SARS-CoV-2; read-out: IC50 against SARS-CoV-2) was ~0.198 µM and 0.198 µM, the EC50 (West Nile virus) was greater than 24 µM and the CC50 (in vitro [12]) was 7.5 µM. The Clint [13] was 11.4, the “Dextromethorphan: compound, t1/2 normalized to dextromethorphan control” value [13] was 6.2 and the t1/2 [13] was 2.037 h. It also gave an EC50 (Hepatitis C virus) of 0.78 µM, an EC90 (Hepatitis C virus) of 1.71 µM and an IC50 (Nipah virus) of 0.064 µM. For the same compound, the EC50 (Murine norovirus) was greater than 40 µM, the EC90 (Murine norovirus) was greater than 40 µM and the Clint [14] was 15.5. The “Dextromethorphan: compound, t1/2 normalized to dextromethorphan control” value [14] was 16.7, the t1/2 ([14]; monkey) was 1.5 h and the “Relative Peak Area/Abundance GPLM” value [15] was 75.9%. The Clint [16] was 21.0, the “Dextromethorphan: compound, t1/2 normalized to dextromethorphan control” value [16] was 23.4 and the t1/2 [16] was 1.1 h. For the same compound, the Clint [17] was less than 7.4, the “Dextromethorphan: compound, t1/2 normalized to dextromethorphan control” value [17] was greater than 11.5 and the t1/2 [17] was greater than 3.1 h. It also gave an EC50 (Tacaribe virus) greater than 3.2 µM, a CC50 (HepG2 2.2.15) of 3.54 µM and a CC50 (in vitro [18]) greater than 100 µM. It also gave an IC50 [19] of 1.01 ± 0.58 µM, an IC50 [20] of 2.72 ± 0.97 µM and an IC50 ([20]; read-out: IC50 range against two strains of Marburg virus) of 1.01 to 2.72 µM. For the same compound, the EC50 (MERS coronavirus) was 3.2 µM, the EC50 (Hepatitis B virus) was 4.52 µM and the EC90 (Hepatitis B virus) was greater than 100 µM. For the same compound, the EC50 (Poliovirus 3) was 3.2 µM and the EC50 (Chikungunya virus) was 3.2 µM.
